Patent US20250230193A1, “CYCLIC COMPOUND HAVING SELECTIVE KRAS INHIBITORY EFFECT ON HRAS AND NRAS” (CHUGAI SEIYAKU KABUSHIKI KAISHA, priority 2022, published 2025)

Legend:
[1] = target: GDP-bound HRAS wild-type protein (Homo sapiens, UniProt P01112); assay: Binding to HRAS by surface plasmon resonance (SPR), Single Cycle Kinetics; conditions: KD ratio HRAS/KRAS, SPR
[2] = target: GDP-bound NRAS wild-type protein (Homo sapiens, UniProt P01111); assay: Binding to NRAS by surface plasmon resonance (SPR), Single Cycle Kinetics; conditions: KD ratio NRAS/KRAS, SPR
Sequence of GDP-bound NRAS wild-type protein (P01111 whole entry): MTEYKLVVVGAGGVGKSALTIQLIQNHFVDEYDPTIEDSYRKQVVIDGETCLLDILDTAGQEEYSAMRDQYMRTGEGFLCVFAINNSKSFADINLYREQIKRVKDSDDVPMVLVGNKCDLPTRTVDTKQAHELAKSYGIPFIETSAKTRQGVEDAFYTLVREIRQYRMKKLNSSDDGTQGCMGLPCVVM

Sequence of GDP-bound HRAS wild-type protein (P01112 whole entry): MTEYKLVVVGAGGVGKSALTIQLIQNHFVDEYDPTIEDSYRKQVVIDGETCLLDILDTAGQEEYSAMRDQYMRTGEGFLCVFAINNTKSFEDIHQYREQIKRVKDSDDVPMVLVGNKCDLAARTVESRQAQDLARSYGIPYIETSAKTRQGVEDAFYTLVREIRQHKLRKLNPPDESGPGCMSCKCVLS

Compound	HRAS/KRAS (ratio of KD value with respect to GDP-bound HRAS wild-type protein to KD value with respect to KRAS) [1]	NRAS/KRAS (ratio of KD value with respect to GDP-bound NRAS wild-type protein to KD value with respect to KRAS) [2]
CC[C@H](C)[C@@H]1NC(=O)[C@H](CC(C)C)N(C)C(=O)C[C@@H](C(=O)N2CCOCC2)N(C)C(=O)[C@H](C2CCCC2)N(C)C(=O)C2(CCCC2)NC(=O)[C@@H]2CCCN2C(=O)[C@H](CCc2cc(F)c(C(F)(F)F)c(F)c2)NC(=O)CN(C)C(=O)[C@H](Cc2ccc(C(F)(F)F)cc2)N2CCCCC[C@@H](C2=O)N(C)C(=O)[C@H](C)NC1=O [PP0481]	B (a compound having 3 or more and less than 10 is denoted as B)	B (a compound having 3 or more and less than 10 is denoted as B)
CC[C@H](C)[C@@H]1NC(=O)[C@H](CC(C)C)N(C)C(=O)C[C@@H](C(=O)N2CCOCC2)N(C)C(=O)[C@H](C2CCCC2)N(C)C(=O)C2(CCCC2)NC(=O)[C@@H]2CCCN2C(=O)[C@H](CCc2cc(F)c(C(F)(F)F)c(F)c2)NC(=O)CN(C)C(=O)[C@H](Cc2ccc(C(F)(F)F)cc2)N2CCCCC[C@@H](C2=O)N(C)C(=O)CN(CC)C1=O [PP0483]	B (a compound having 3 or more and less than 10 is denoted as B)	B (a compound having 3 or more and less than 10 is denoted as B)
CC[C@H](C)[C@@H]1NC(=O)[C@H](CC(C)C)N(C)C(=O)C[C@@H](C(=O)N2CCOCC2)N(C)C(=O)[C@H](C2CCCC2)N(C)C(=O)C2(CCCC2)NC(=O)[C@@H]2CCCN2C(=O)[C@H](CCc2cc(F)c(C(F)(F)F)c(F)c2)NC(=O)CN(C)C(=O)[C@H](Cc2ccc(C(F)(F)F)cc2)N2CCCCC[C@@H](C2=O)N(C)C(=O)[C@@H]2CCN2C1=O [PP0484]	B (a compound having 3 or more and less than 10 is denoted as B)	A (a compound having 10 or more and less than 20 is denoted as A)
CC[C@H](C)[C@@H]1NC(=O)[C@H](CC(C)C)N(C)C(=O)C[C@@H](C(=O)N2CCOCC2)N(C)C(=O)[C@H](C2CCCC2)N(C)C(=O)C2(CCCC2)NC(=O)[C@@H]2CCCN2C(=O)[C@H](CCc2cc(F)c(C(F)(F)F)c(F)c2)NC(=O)CN(C)C(=O)[C@H](Cc2ccc(C(F)(F)F)cc2)N2CCCCC[C@@H](C2=O)N(C)C(=O)[C@@H]2CCCN2C1=O [PP0485]	B (a compound having 3 or more and less than 10 is denoted as B)	A (a compound having 10 or more and less than 20 is denoted as A)
CC[C@H](C)[C@@H]1NC(=O)[C@H](C)N(C)C(=O)C[C@@H](C(=O)N2CCOCC2)N(C)C(=O)[C@H](C2CCCC2)N(C)C(=O)C2(CCCC2)NC(=O)[C@@H]2CCCN2C(=O)[C@H](CCc2cc(F)c(C(F)(F)F)c(F)c2)NC(=O)CN(C)C(=O)[C@H](Cc2ccc(C(F)(F)F)cc2)N2CCCCC[C@@H](C2=O)N(C)C(=O)CN(C)C1=O [PP0487]	B (a compound having 3 or more and less than 10 is denoted as B)	B (a compound having 3 or more and less than 10 is denoted as B)
CC[C@H](C)[C@@H]1NC(=O)[C@H](CC)N(C)C(=O)C[C@@H](C(=O)N2CCOCC2)N(C)C(=O)[C@H](C2CCCC2)N(C)C(=O)C2(CCCC2)NC(=O)[C@@H]2CCCN2C(=O)[C@H](CCc2cc(F)c(C(F)(F)F)c(F)c2)NC(=O)CN(C)C(=O)[C@H](Cc2ccc(C(F)(F)F)cc2)N2CCCCC[C@@H](C2=O)N(C)C(=O)CN(C)C1=O [PP0488]	B (a compound having 3 or more and less than 10 is denoted as B)	A (a compound having 10 or more and less than 20 is denoted as A)
CC[C@H](C)[C@@H]1NC(=O)[C@H](CC(C)C)N(C)C(=O)C[C@@H](C(=O)N2CCOCC2)N(C)C(=O)[C@H](C2CCCC2)N(C)C(=O)C2(CCCC2)NC(=O)[C@@H]2CCCN2C(=O)[C@H](CCc2cc(F)c(C(F)(F)F)c(F)c2)NC(=O)CN(C)C(=O)[C@H](Cc2ccc(C(F)(F)F)cc2)N2CCCCC[C@@H](C2=O)N(C)C(=O)CN(C)C1=O [PP0490]	B (a compound having 3 or more and less than 10 is denoted as B)	B (a compound having 3 or more and less than 10 is denoted as B)
CC[C@H](C)[C@@H]1NC(=O)[C@H](CC(C)C)N(C)C(=O)C[C@@H](C(=O)N2CCOCC2)N(C)C(=O)[C@H](C2CCCC2)N(C)C(=O)C2(CCCC2)NC(=O)[C@@H]2CC(F)(F)CN2C(=O)[C@H](CCc2cc(F)c(C(F)(F)F)c(F)c2)NC(=O)CN(C)C(=O)[C@H](Cc2ccc(C(F)(F)F)cc2)N2CCCCC[C@@H](C2=O)N(C)C(=O)CN(C)C1=O [PP0491]	B (a compound having 3 or more and less than 10 is denoted as B)	B (a compound having 3 or more and less than 10 is denoted as B)
CCO[C@@H]1C[C@H]2C(=O)NC3(CCCC3)C(=O)N(C)[C@@H](C3CCCC3)C(=O)N(C)[C@H](C(=O)N3CCOCC3)CC(=O)N(C)[C@@H](CC(C)C)C(=O)N[C@@H]([C@@H](C)CC)C(=O)N(C)CC(=O)N(C)[C@H]3CCCCCN(C3=O)[C@@H](Cc3ccc(C(F)(F)F)cc3)C(=O)N(C)CC(=O)N[C@@H](CCc3cc(F)c(C(F)(F)F)c(F)c3)C(=O)N2C1 [PP0492]	B (a compound having 3 or more and less than 10 is denoted as B)	B (a compound having 3 or more and less than 10 is denoted as B)
CC[C@H](C)[C@@H]1NC(=O)[C@H](CC(C)C)N(C)C(=O)C[C@@H](C(=O)N2CCOCC2)N(C)C(=O)[C@H](C2CCCC2)N(C)C(=O)C2(CCCC2)NC(=O)[C@@H]2CC(=O)CN2C(=O)[C@H](CCc2cc(F)c(C(F)(F)F)c(F)c2)NC(=O)CN(C)C(=O)[C@H](Cc2ccc(C(F)(F)F)cc2)N2CCCCC[C@@H](C2=O)N(C)C(=O)CN(C)C1=O [PP0493]	B (a compound having 3 or more and less than 10 is denoted as B)	B (a compound having 3 or more and less than 10 is denoted as B)
CC[C@H](C)[C@@H]1NC(=O)[C@H](CC(C)C)N(C)C(=O)C[C@@H](C(=O)N2CCOCC2)N(C)C(=O)[C@H](C2CCCC2)N(C)C(=O)C2(CCCC2)NC(=O)[C@@H]2C[C@H](OC)CN2C(=O)[C@H](CCc2cc(F)c(C(F)(F)F)c(F)c2)NC(=O)CN(C)C(=O)[C@H](Cc2ccc(C(F)(F)F)cc2)N2CCCCC[C@@H](C2=O)N(C)C(=O)CN(C)C1=O [PP0495]	B (a compound having 3 or more and less than 10 is denoted as B)	A (a compound having 10 or more and less than 20 is denoted as A)
